One experiment deals with hSGLT-2 (Homo sapiens (Human), UniProt P31639). Kind of experiment: [14C]AMG uptake inhibition in CHO-K1/hSGLT-2 cells. Format: cell-based. The conditions noted are these: 4 μM [14C]AMG, 3-hr incubation at 37° C., read-out: SGLT2, IC50. The method, then: The inhibitory activity of the compounds of this invention against the SGLT-1 or SGLT-2 transporters can be determined by the following assay. […] CHO-K1 cells transfected with pcDNA3.1 (Invitrogen Corp., Carlsbad, Calif.) containing either the full-length hSGLT-1 or hSGLT-2 using Lipofectamine 2000 (Invitrogen Corp., Carlsbad, Calif.) were selected for stable incorporation of the construct by resistance to the selective pressure of Geneticin (450 μg/ml; Invitrogen Corp., Carlsbad, Calif.). Monoclonal cell lines isolated by minimal dilution were screened for uptake activity of radiolabled methyl α-D-glucopyranoside ([^14C]AMG), a non-metabolizable glucose analogue, and a single clone for each transporter was selected for maximal transporter activity to be used for evaluating the inhibitory activity of the compounds of this invention. In brief, 35,000 cells (CHO-K1/hSGLT-1 or CHO-K1/hSGLT-2) were plated per well of a black tissue culture treated 96-well plate in Ham's F12 media supplemented with 10% heat inactivated FBS and allowed to attached overnight at 37° C. and 5% CO2. Compounds were serially diluted 3-fold in DMSO generating a nine (9) data point dose response curve for each compound. Two replicates were performed per determination. […] Following a 3-hr incubation at 37° C. and 5% CO2, the uptake reaction was stopped by washing the cells three (3) times with ice-cold D-PBS and then lysing the cells with 50 μl of Microscint-20. […] Data were fit to an empirical four-parameter model to determine the inhibitor concentration at half-maximal response (IC50). The assay window was established by control wells incubated with [^14C]AMG in the presence or absence of sodium. A dose response curve for phlorizin was generated on every plate as a positive control.
hSGLT-2, sequence (P31639 whole entry): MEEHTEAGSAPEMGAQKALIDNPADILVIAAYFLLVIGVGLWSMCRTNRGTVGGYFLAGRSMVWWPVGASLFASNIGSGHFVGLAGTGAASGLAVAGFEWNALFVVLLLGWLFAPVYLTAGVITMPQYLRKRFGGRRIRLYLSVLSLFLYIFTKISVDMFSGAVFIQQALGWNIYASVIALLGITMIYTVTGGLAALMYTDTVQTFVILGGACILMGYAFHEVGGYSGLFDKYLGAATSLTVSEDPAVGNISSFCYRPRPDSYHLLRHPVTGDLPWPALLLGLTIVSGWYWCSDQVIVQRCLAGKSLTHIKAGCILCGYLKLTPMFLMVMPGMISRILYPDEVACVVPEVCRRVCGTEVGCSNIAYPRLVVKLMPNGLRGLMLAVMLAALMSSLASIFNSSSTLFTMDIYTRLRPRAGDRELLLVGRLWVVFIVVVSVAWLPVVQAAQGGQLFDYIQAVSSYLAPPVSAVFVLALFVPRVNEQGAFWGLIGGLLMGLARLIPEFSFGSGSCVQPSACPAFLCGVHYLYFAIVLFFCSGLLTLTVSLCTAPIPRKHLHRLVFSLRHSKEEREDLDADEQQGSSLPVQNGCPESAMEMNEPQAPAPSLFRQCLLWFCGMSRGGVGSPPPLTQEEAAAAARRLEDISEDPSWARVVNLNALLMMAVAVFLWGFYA

The target in the next experiment is hSGLT-1 (Homo sapiens (Human), UniProt P13866). Kind of experiment: [14C]AMG uptake inhibition in CHO-K1/hSGLT-1 cells. The conditions noted are these: 4 μM [14C]AMG, 3-hr incubation at 37° C., read-out: SGLT-1, IC50. Format: cell-based. An excerpt:
The inhibitory activity of the compounds of this invention against the SGLT-1 or SGLT-2 transporters can be determined by the following assay. The cDNAs for the human genes of SGLT-1 (SLC5A1—solute carrier family 5 sodium/glucose cotransporter member 1; Accession #NM_000343.1) or SGLT-2 (SLC5A2—member 2; Accession #NM_003041.2) were synthesized (OriGene Technologies, Inc.) and sub-cloned into the mammalian expression vector, pcDNA3.1 (Invitrogen Corp., Carlsbad, Calif.) using standard molecular biology techniques. CHO-K1 cells transfected with pcDNA3.1 (Invitrogen Corp., Carlsbad, Calif.) containing either the full-length hSGLT-1 or hSGLT-2 using Lipofectamine 2000 (Invitrogen Corp., Carlsbad, Calif.) were selected for stable incorporation of the construct by resistance to the selective pressure of Geneticin (450 μg/ml; Invitrogen Corp., Carlsbad, Calif.). Monoclonal cell lines isolated by minimal dilution were screened for uptake activity of radiolabled methyl α-D-glucopyranoside ([^14C]AMG), a non-metabolizable glucose analogue, and a single clone for each transporter was selected for maximal transporter activity to be used for evaluating the inhibitory activity of the compounds of this invention. In brief, 35,000 cells (CHO-K1/hSGLT-1 or CHO-K1/hSGLT-2) were plated per well of a black tissue culture treated 96-well plate in Ham's F12 media supplemented with 10% heat inactivated FBS and allowed to attached overnight at 37° C. and 5% CO2. Compounds were serially diluted 3-fold in DMSO generating a nine (9) data point dose response curve for each compound. Two replicates were performed per determination. The compounds were then diluted into Uptake Buffer (10 mM Hepes, 5 mM Tris, 137 mM NaCl, 5.4 mM KCl, 2.8 mM CaCl2, and 1.2 mM MgSO4, pH 7.4) with a final DMSO concentration of 0.9% (v/v). After the overnight incubation and prior to compound treatment, the cells were washed twice with Sodium Free Buffer in which the sodium chloride was replaced with 137 mM Choline Chloride, and then incubated with 4 μM [^14C]AMG in Uptake Buffer in the presence or absence of diluted compound. Following a 3-hr incubation at 37° C. and 5% CO2, the uptake reaction was stopped by washing the cells three (3) times with ice-cold D-PBS and then lysing the cells with 50 μl of Microscint-20. After 15-min, the amount of radioactivity that was incorporated into the cells was quantified using a Microbeta reader. Data were fit to an empirical four-parameter model to determine the inhibitor concentration at half-maximal response (IC50). The assay window was established by control wells incubated with [^14C]AMG in the presence or absence of sodium. A dose response curve for phlorizin was generated on every plate as a positive control.

Bounds are passed on as bounds.

hSGLT-1, sequence (P13866 whole entry): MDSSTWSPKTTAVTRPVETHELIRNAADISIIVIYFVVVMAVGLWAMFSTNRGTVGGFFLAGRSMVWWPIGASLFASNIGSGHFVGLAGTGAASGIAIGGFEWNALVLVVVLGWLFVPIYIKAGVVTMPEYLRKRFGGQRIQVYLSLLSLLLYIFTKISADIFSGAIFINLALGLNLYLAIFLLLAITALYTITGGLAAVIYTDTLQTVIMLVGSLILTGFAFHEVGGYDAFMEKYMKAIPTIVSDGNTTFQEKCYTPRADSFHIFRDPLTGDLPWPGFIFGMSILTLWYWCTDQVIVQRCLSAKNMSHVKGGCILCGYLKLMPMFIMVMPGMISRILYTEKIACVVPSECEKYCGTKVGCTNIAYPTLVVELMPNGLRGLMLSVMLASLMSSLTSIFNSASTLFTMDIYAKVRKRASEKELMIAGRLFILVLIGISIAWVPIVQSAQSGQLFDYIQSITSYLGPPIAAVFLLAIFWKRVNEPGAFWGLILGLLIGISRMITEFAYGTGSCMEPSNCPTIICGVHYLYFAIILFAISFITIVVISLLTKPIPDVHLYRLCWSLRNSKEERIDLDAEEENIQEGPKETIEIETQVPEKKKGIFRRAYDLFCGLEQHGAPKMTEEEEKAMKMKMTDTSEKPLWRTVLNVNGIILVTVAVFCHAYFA

On to `CCN1C(=O)CN(c2ccc(Cc3cc([C@@H]4O[C@H](CO)[C@@H](O)[C@H](O)[C@H]4O)ccc3Cl)cc2)C1=O` [III-2, 1-(4-(2-chloro-5-((2S,3R,4R,5S,6R)-3,4,5-trihydroxy-6-(hydroxymethyl)tetrahydro-2H-pyran-2-yl)benzyl)phenyl)-3-ethylimidazolidine-2,4-dione], for which the results for the IC50 on hSGLT-2 and on hSGLT-1 were 11.4 nM and 17500 nM, respectively.

Take `CN1CC(=O)N(c2ccc(Cc3cc([C@@H]4O[C@H](CO)[C@@H](O)[C@H](O)[C@H]4O)ccc3Cl)cc2)C1=O` [III-3, 3-(4-(2-chloro-5-((2S,3R,4R,5S,6R)-3,4,5-trihydroxy-6-(hydroxymethyl)tetrahydro-2H-pyran-2-yl)benzyl)phenyl)-1-methylimidazolidine-2,4-dione]: the half-maximal inhibitory concentration (IC50) (usually the concentration needed to halve the response being measured) worked out at 148 nM on hSGLT-2 and 83 nM on hSGLT-1.

On to `CC(C)N1C(=O)CN(c2ccc(Cc3cc([C@@H]4O[C@H](CO)[C@@H](O)[C@H](O)[C@H]4O)ccc3Cl)cc2)C1=O` [III-4, 1-(4-(2-chloro-5-((2S,3R,4R,5S,6R)-3,4,5-trihydroxy-6-(hydroxymethyl)tetrahydro-2H-pyran-2-yl)benzyl)phenyl)-3-isopropylimidazolidine-2,4-dione], for which the IC50 at hSGLT-2 came out at 23.6 nM; at hSGLT-1 it was 35400 nM.

Turning to `CN1C(=O)N(c2ccc(Cc3cc([C@@H]4O[C@H](CO)[C@@H](O)[C@H](O)[C@H]4O)ccc3Cl)cc2)C(C)(C)C1=O` [III-5, 1-(4-(2-chloro-5-((2S,3R,4R,5S,6R)-3,4,5-trihydroxy-6-(hydroxymethyl)tetrahydro-2H-pyran-2-yl)benzyl)phenyl)-3,5,5-trimethylimidazolidine-2,4-dione], the IC50 was 489 nM at hSGLT-2 and more than 90000 nM on hSGLT-1.

Source of the values: patent US8575114B2, “SGLT-2 inhibitors, methods of making them, and uses thereof” (Albany Molecular Research, Inc., priority 2010, dated 2013).
